# In patent US20090018134A1, “Compounds - 945” (AstraZeneca AB, priority 2007, published 2009):
# Molecular target: T1, mTOR (Homo sapiens, UniProt P42345)
# T1 construct: FLAG; made in house
# Experiment: In Vitro mTOR Kinase Assay (Echo), Test (a)(ii)
# Type: biochemical
# Details: read-out: mTOR Kinase Assay (Echo)
# Summary of the method: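 AlphaScreen read-out: biotinylated substrate phosphorylation was detected with anti-p70 S6K (T389) 1A5 antibody, Protein A acceptor and streptavidin donor beads after overnight dark incubation at room temperature. Enzyme was FLAG-mTOR 1362-2549 from stable HEK293 cells.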
# T1 sequence (P42345 1362-2549): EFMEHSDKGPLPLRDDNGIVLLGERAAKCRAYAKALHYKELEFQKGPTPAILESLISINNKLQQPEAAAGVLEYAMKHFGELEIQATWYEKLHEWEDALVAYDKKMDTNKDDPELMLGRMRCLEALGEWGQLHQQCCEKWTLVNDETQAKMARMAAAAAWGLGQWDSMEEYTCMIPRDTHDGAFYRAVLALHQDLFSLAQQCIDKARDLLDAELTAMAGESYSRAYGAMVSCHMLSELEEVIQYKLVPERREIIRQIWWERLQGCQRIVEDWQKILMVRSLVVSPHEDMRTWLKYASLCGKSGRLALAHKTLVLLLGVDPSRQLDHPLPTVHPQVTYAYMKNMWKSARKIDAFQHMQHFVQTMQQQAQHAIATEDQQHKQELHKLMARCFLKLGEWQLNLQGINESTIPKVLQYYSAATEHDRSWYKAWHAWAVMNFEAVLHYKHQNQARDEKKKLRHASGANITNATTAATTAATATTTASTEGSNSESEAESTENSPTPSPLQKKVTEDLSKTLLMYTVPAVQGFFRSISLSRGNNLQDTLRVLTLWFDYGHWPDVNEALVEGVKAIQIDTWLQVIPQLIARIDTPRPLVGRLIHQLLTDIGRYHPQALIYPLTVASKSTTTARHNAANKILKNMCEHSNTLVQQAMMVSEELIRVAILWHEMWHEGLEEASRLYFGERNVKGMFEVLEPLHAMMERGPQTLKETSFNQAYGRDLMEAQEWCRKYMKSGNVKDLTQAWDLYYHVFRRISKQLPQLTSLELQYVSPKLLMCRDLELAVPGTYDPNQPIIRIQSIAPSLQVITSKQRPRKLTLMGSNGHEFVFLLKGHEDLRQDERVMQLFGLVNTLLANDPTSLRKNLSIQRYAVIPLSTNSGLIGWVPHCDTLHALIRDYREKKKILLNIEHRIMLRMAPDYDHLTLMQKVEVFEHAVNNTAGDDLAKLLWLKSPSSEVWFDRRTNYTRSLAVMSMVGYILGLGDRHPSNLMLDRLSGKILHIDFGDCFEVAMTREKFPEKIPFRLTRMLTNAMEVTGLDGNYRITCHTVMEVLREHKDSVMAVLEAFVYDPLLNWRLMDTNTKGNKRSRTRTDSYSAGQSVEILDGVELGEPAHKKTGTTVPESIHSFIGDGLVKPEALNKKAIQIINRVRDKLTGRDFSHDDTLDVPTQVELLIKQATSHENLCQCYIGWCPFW
row,Compound,IC50
1,"C[C@H]1COCCN1c1cc(C2(S(C)(=O)=O)CC2)nc(-c2ccc(NC(=O)Nc3ccc(F)cc3)cc2)n1 [Example 2p, 3-(4-fluorophenyl)-1-[4-[4-[(3S)-3-methylmorpholin-4-yl]-6-(1-methylsulfonylcyclopropyl)pyrimidin-2-yl]phenyl]urea]",2.7 nM
2,"CC(C)CNC(=O)Nc1ccc(-c2nc(N3CCOC[C@@H]3C)cc(C3(S(=O)(=O)c4ccccc4C(F)(F)F)CC3)n2)cc1 [Example 10c, 1-[4-[4-[(3S)-3-methylmorpholin-4-yl]-6-[1-[2-(trifluoromethyl)phenyl]sulfonylcyclopropyl]pyrimidin-2-yl]phenyl]-3-(2-methylpropyl)urea]",147 nM
3,"Cc1ccc(NC(=O)Nc2ccc(-c3nc(N4CCOC[C@@H]4C)cc(C4(S(C)(=O)=O)CC4)n3)cc2)cc1 [Example 2r, 1-[4-[4-[(3S)-3-methylmorpholin-4-yl]-6-(1-methylsulfonylcyclopropyl)pyrimidin-2-yl]phenyl]-3-(4-methylphenyl)urea]",0.66 nM

# The next lines start with the values.
row,IC50,Compound
1,3.85 nM,"C[C@H]1COCCN1c1cc(C2(S(=O)(=O)C3CC3)CC2)nc(-c2ccc(NC(=O)Nc3ccccn3)cc2)n1 [Example 3b, 1-[4-[4-(1-cyclopropylsulfonylcyclopropyl)-6-[(3S)-3-methylmorpholin-4-yl]pyrimidin-2-yl]phenyl]-3-pyridin-2-yl-urea]"
2,13.5 nM,"CC(C)NC(=O)Nc1ccc(-c2nc(N3CCOC[C@@H]3C)cc(C3(S(=O)(=O)C4CC4)CC3)n2)cc1 [Example 3d, 1-[4-[4-(1-cyclopropylsulfonylcyclopropyl)-6-[(3S)-3-methylmorpholin-4-yl]pyrimidin-2-yl]phenyl]-3-propan-2-yl-urea]"
3,24.7 nM,"CCS(=O)(=O)C1(c2cc(N3CCOC[C@@H]3C)nc(-c3ccc(NC(=O)NC(C)C)cc3)n2)CC1 [Example 11c, 1-[4-[4-(1-ethylsulfonylcyclopropyl)-6-[(3S)-3-methylmorpholin-4-yl]pyrimidin-2-yl]phenyl]-3-propan-2-yl-urea]"
4,4.45 nM,"C[C@H]1COCCN1c1cc(C2(S(=O)(=O)C3CC3)CC2)nc(-c2ccc(NC(=O)NC3CCC3)cc2)n1 [Example 3a, 3-cyclobutyl-1-[4-[4-(1-cyclopropylsulfonylcyclopropyl)-6-[(3S)-3-methylmorpholin-4-yl]pyrimidin-2-yl]phenyl]urea]"

# Same assay, conditions: table of enzyme assay Test (a)(ii); read-out: Test (a)(ii) IC50
row,Compound,IC50
1,"C[C@H]1COCCN1c1cc(C2(S(=O)(=O)CCCO)CC2)nc(-c2ccc(NC(=O)NCc3ncc[nH]3)cc2)n1 [Example 36c, 1-[4-[4-[1-(3-hydroxypropylsulfonyl)cyclopro-pyl]-6-[(3S)-3-methylmorpholin-4-yl]pyrimidin-2-yl]phenyl]-3-(1H-imidazol-2-ylmethyl)urea]",114 nM
2,"O=C(Nc1ccc(-c2nc(N3CCOCC3)cc(C3(S(=O)(=O)CCO)CC3)n2)cc1)NC1CC1 [Example 47, 3-Cyclopropyl-1-[4-[4-[1-(2-hydroxyethylsulfonyl)cyclopropyl]-6-morpholin-4-ylpyrimidin-2-yl]phenyl]urea]",15.5 nM
3,"CN(C(=O)C1(c2cc(N3CCOCC3)nc(-c3ccc(NC(=O)NCCO)cc3)n2)CC1)C1CC1 [Example 34c, N-cyclopropyl-1-[2-[4-(2-hydroxyethylcarbamoylamino)phe-nyl]-6-morpholin-4-ylpyrimidin-4-yl]-N-methylcyclopropane-1-carboxamide]",3.45 nM
4,"CCNC(=O)Nc1ccc(-c2nc(N3[C@@H](C)COC[C@@H]3C)cc(C3(S(=O)(=O)c4ccccc4)CC3)n2)cc1 [Example 72, 1-[4-[4-[1-(Benzenesulfonyl)cyclopropyl]-6-[(3S,5S)-3,5-dimethylmorpholin-4-yl]pyrimidin-2-yl]phenyl]-3-ethylurea]",4.32 nM
5,"C[C@H]1COCCN1c1cc(C2(S(C)(=O)=O)CCCC2)nc(-c2ccc(NC(=O)Nc3cnn(C)c3)nc2)n1 [Example 14r, 1-[5-[4-[(3S)-3-methylmorpholin-4-yl]-6-(1-methylsulfonylcyclopentyl)pyri-midin-2-yl]pyridin-2-yl]-3-(1-methylpyrazol-4-yl)urea]",10.3 nM
6,"CNC(=O)Nc1ccc(-c2nc(N3[C@@H](C)COC[C@@H]3C)cc(C3(S(=O)(=O)c4ccccc4)CC3)n2)cc1 [Example 93a, 1-[4-[4-[1-(benzenesulfonyl)cyclopropyl]-6-[(3S,5S)-3,5-dimethylmorpholin-4-yl]pyrimidin-2-yl]phenyl]-3-methylurea]",3.03 nM
7,"Cc1csc(S(=O)(=O)C2(c3cc(N4CCOC[C@@H]4C)nc(-c4ccc(NC(=O)NC5(CO)CC5)cc4)n3)CC2)n1 [Example 36q, 3-[1-(hydroxymethyl)cyclopropyl]-1-[4-[4-[(3S)-3-methylmorpholin-4-yl]-6-[1-[(4-methyl-1,3-thiazol-2-yl)sulfonyl]cyclopropyl]pyrimidin-2-yl]phenyl]urea]",88.9 nM
8,"Cc1ccc(NC(=O)Nc2ccc(-c3nc(N4CCOC[C@@H]4C)cc(C4(S(C)(=O)=O)CC4)n3)cc2)cc1 [Example 2r, 1-[4-[4-[(3S)-3-methylmorpholin-4-yl]-6-(1-methylsulfonylcyclopropyl)pyrimidin-2-yl]phenyl]-3-(4-methylphenyl)urea]",1.03 nM
9,"C[C@H](CO)NC(=S)Nc1ccc(-c2nc(N3CCOC[C@@H]3C)cc(C3(S(C)(=O)=O)CCC3)n2)cc1 [Example 62c, 3-[(2R)-1-hydroxypropan-2-yl]-1-[4-[4-[(3S)-3-methylmorpholin-4-yl]-6-(1-methylsulfonylcyclobutyl)pyrimi-din-2-yl]phenyl]thiourea]",37.5 nM
10,"C[C@H]1COCCN1c1cc(C2(S(=O)(=O)c3ccc(F)cc3)CC2)nc(-c2ccc(NC(=O)NC3CC3)nc2)n1 [Example 14i, 3-cyclopropyl-1-[5-[4-[1-(4-fluorophenyl)sulfonylcyclopro-pyl]-6-[(3S)-3-methylmorpholin-4-yl]pyrimidin-2-yl]pyridin-2-yl]urea]",33.9 nM
11,"CC[C@H]1COCCN1c1cc(C2(S(=O)(=O)c3ccccc3)CC2)nc(-c2ccc(NC(=O)Nc3cnn(C)c3)cc2)n1 [Example 74e, 1-[4-[4-[1-(benzenesulfonyl)cyclopropyl]-6-[(3S)-3-ethylmorpholin-4-yl]pyrimidin-2-yl]phenyl]-3-(1-methylpyrazol-4-yl)urea]",5.06 nM

# Further lines, results first:
row,IC50,Compound
1,19 nM,"C[C@H]1COCCN1c1cc(C2(S(=O)(=O)c3ccc(F)c(Cl)c3)CC2)nc(-c2ccc(NC(=O)NC3CC3)cc2)n1 [Example 95b, 1-[4-[4-[1-(3-chloro-4-fluorophenyl)sulfonyl-cyclopropyl]-6-[(3S)-3-methylmorpholin-4-yl]pyrimidin-2-yl]phenyl]-3-cyclopropylurea]"
2,10.9 nM,"CCNC(=O)Nc1ccc(-c2nc(N3CCOC[C@@H]3C)cc(C3(S(=O)(=O)c4ccc(F)c(Cl)c4)CC3)n2)cc1 [Example 95f, 3-[4-[4-[1-(3-chloro-4-fluorophenyl)sulfonyl-cyclopropyl]-6-[(3S)-3-methylmorpholin-4-yl]pyrimidin-2-yl]phenyl]-1-ethylurea]"
3,1.07 nM,"CCNC(=O)Nc1ccc(-c2nc(N3CCOC[C@@H]3C)cc(C3(S(=O)(=O)CCCO)CC3)n2)cc1 [Example 31e, 1-ethyl-3-[4-[4-[1-(3-hydroxypropylsulfonyl)cyclopropyl]-6-[(3S)-3-methylmorpholin-4-yl]pyrimidin-2-yl]phenyl]urea]"
4,2.18 nM,"CNC(=O)Nc1ccc(-c2nc(N3CCOC[C@@H]3C)cc(C3(S(=O)(=O)c4cccc(F)c4)CC3)n2)cc1 [Example 53, 1-[4-[4-[1-(3-Fluorophenyl)sulfonylcyclopropyl]-6-[(3S)-3-methylmorpholin-4-yl]pyrimidin-2-yl]phenyl]-3-methylurea]"
5,5.55 nM,"CNC(=O)Nc1ccc(-c2nc(N3CCOC[C@@H]3C)cc(C3(S(=O)(=O)C(C)(C)C)CC3)n2)cc1 [Example 18i, 1-[4-[4-(1-tert-butylsulfonylcyclopropyl)-6-[(3S)-3-methylmorpholin-4-yl]pyrimidin-2-yl]phenyl]-3-methylurea]"
6,9.4 nM,"C[C@H]1COCCN1c1cc(C2(S(C)(=O)=O)CC2)nc(-c2ccc(NC(=O)NCC(F)F)cc2)n1 [Example 64ab, 3-(2,2-difluoroethyl)-1-[4-[4-[(3S)-methylsulfonylcyclopropyl)pyrimi-din-2-yl]phenyl]urea]"
7,2.46 nM,"C[C@H]1COCCN1c1cc(C2(S(=O)(=O)c3nccs3)CCC2)nc(-c2ccc(NC(=O)NCCO)cc2)n1 [Example 98k, 3-(2-hydroxyethyl)-1-[4-[4-[(3S)-3-methylmorpholin-4-yl]-6-[1-(1,3-thiazol-2-ylsulfonyl)cyclobutyl]pyrimidin-2-yl]phenyl]urea]"
8,15.7 nM,"C[C@H]1COCCN1c1cc(C2(S(=O)(=O)CCCO)CCC2)nc(-c2ccc(NC(=O)NCC(F)F)cc2)n1 [Example 43o, 3-(2,2-difluoroethyl)-1-[4-[4-[1-(3-hydroxypropylsulfonyl)cyclobu-tyl]-6-[(3S)-3-methylmorpholin-4-yl]pyrimidin-2-yl]phenyl]urea]"
9,10.3 nM,"Cc1nc(S(=O)(=O)C2(c3cc(N4CCOC[C@@H]4C)nc(-c4ccc(NC(=O)NC5CC5)cc4)n3)CC2)sc1C [Example 80b, 3-cyclopropyl-1-[4-[4-[1-[(4,5-dimethyl-1,3-thiazol-2-yl)sulfonyl]cyclopropyl]-6-[(3S)-3-methylmorpholin-4-yl]pyrimidin-2-yl]phenyl]urea]"
10,11.4 nM,"C[C@H]1COCCN1c1cc(C2(S(=O)(=O)C3CC3)CC2)nc(-c2ccc(NC(=O)NCCF)cc2)n1 [Example 64t, 1-[4-[4-(1-cyclopropylsulfonylcyclopropyl)-6-[(3S)-3-methylmorpholin-4-yl]pyrimidin-2-yl]phenyl]-3-(2-fluoroethyl)urea]"
11,386 nM,"CN(C)CCNC(=O)Nc1ccc(-c2nc(N3CCOCC3)cc(C3(S(=O)(=O)C4CC4)CC3)n2)cc1 [Example 13f, 1-[4-[4-(1-cyclopropylsulfonylcyclopropyl)-6-morpholin-4-ylpyrimidin-2-yl]phenyl]-3-(2-dimethylaminoethyl)urea]"
12,14.3 nM,"CCNC(=O)Nc1ccc(-c2nc(N3CCOC[C@@H]3C)cc(C3(S(=O)(=O)c4nc(C)c(C)s4)CC3)n2)cc1 [Example 80e, 3-[4-[4-[1-[(4,5-dimethyl-1,3-thiazol-2-yl)sulfonyl]cyclopropyl]-6-[(3S)-3-methylmorpholin-4-yl]pyrimidin-2-yl]phenyl]-1-ethylurea]"
